Measurements taken from US20100204467A1, “LANTHANIDE (III) ION COMPLEXING COMPOUNDS, LUMINESCENT LANTHANIDE (III) ION COMPLEXES AND USE THEREOF AS FLUORESCENT LABELS” (CIS BIO INTERNATIONAL, priority 2007, published 2010).

Key:
[1] = Ligand reduction potential; format: physicochemical; details: vs n.h.e., 298K, 0.1 M NBu4ClO4, MeCN
From the text: The quenching process with urate is believed to involve an intermediate exciplex, involving a short-lived bonding π-π interaction. This is disfavoured as the sensitising chromophore becomes less susceptible to accept electron density and is reflected in the ligand reduction potential. For compound (7), this was −1.52 V (vs n.h.e., 298K, 0.1 M NBu4ClO4, MeCN), which compares to −1.07 V for the cyclohexyl tetraazatriphenylene and −1.60 V for the 1-aza-xanthone (2). Terbium complexes of L^1 and L^2 resisted urate and ascorbate quenching more effectively than the comparator complexes.

[2] = Absorption spectrum of Tb(III) complexes; format: physicochemical; details: for γmax: absorption, Tb(III) complexes; for ε: molar extinction coefficient
From the text: (§1) Absorption, emission and triplet energy data for these complexes are collated in Table 1.
The absorption spectrum of [TbL^1]

[3] = Terbium emission lifetime / decay rate constants in H2O and D2O; format: physicochemical; details: lifetime ±10%
From the text: as §1

[4] = Emission quantum yield; format: physicochemical; details: quantum yields ±15%
From the text: as §1

[5] = Triplet energy measured on Gd analogues in frozen glass (77K); format: physicochemical; details: Gd analogues in frozen glass of Et2O/isopentane/ethanol or EtOH/MeOH (2:1)
[6] = molecular target: human serum albumin (Homo sapiens, UniProt P02768); test: Emission lifetime in the presence of human serum albumin, urate and ascorbate; details: 0.4 mM human serum albumin, 0.1 mM sodium urate, 0.2 mM ascorbate, pH 7.4, 298K, 0.1M HEPES
Chain of human serum albumin (P02768 25-609): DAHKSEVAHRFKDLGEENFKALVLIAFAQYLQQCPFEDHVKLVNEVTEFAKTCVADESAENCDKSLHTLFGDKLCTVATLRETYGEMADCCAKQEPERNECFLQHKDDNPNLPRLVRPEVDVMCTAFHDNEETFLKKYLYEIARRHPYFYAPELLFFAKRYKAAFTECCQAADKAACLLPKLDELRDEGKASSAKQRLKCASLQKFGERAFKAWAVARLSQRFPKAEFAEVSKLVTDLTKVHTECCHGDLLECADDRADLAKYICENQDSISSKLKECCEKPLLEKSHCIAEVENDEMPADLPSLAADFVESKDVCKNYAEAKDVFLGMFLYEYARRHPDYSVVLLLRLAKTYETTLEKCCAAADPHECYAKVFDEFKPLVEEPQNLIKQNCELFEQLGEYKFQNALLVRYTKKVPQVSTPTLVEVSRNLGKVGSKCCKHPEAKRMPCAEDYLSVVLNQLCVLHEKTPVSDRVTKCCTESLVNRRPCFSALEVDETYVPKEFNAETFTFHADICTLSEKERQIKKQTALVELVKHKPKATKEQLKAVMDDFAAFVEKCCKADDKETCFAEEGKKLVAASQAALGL
Description: In the presence of 0.4 mM human serum albumin, 0.1 mM sodium urate and 0.2 mM ascorbate, (pH 7.4, 298K, 0.1M HEPES), the emission lifetime of [TbL^2]^3+ was within 10% of its value in water, i.e. 2.1 ms, compared to 0.7 ms and 0.5 ms for [TbL^6]^3+ and [TbL^4]^3+ respectively under the same conditions.

[7] = tested on: Chinese hamster ovarian cells; details: observed previously under the same standard conditions; cited from earlier work
[8] = Stern-Volmer excited state quenching by urate; format: physicochemical; details: pH 7.4, 0.1 M HEPES, 298K
From the text: (§2) A key issue in assessing the utility of such luminescent complexes for intracellular application is their sensitivity towards quenching by endogenous electron-rich species (e.g. urate/ascorbate) either when the complexes are free or protein bound. Accordingly, the Stern-Volmer quenching constants (KSv^−1/mM) defining their relative sensitivity to quenching can be assessed comparatively, (Table 2).

[9] = Stern-Volmer excited state quenching by ascorbate; format: physicochemical; details: pH 7.4, 0.1 M HEPES, 298K
From the text: as §2

[10] = Stern-Volmer excited state quenching by iodide; format: physicochemical; details: pH 7.4, 0.1 M HEPES, 298K
From the text: as §2

[11] = first of two columns headed kD2O^Tb
[12] = second of two columns headed kD2O^Tb

In the case of `Cc1ccn(-c2ccc3c(=O)c4cc(C(C)(C)C)ccc4oc3n2)n1` [Compound 7, 7-Tert-Butyl-2-(N-3′-Methylpyrazole)-1-Azaxanthone], the ligand reduction potential [1] is reported as −1.52 V.
With `CC(NC(=O)CN1CCN(CC(=O)NC(C)c2ccccc2)CCN(Cc2ccc3c(n2)c2ncccc2c2nc4c(nc32)CCCC4)CCN(CC(=O)NC(C)c2ccccc2)CC1)c1ccccc1.[Tb+3]` (stereo not shown) [[TbL^6]^3+] the γmax [2] was 348 nm, the ε [2] was 8,300 M^−1 cm^−1 and the “kD2O^Tb” value [3, 11] was 640 s⁻¹. For the same compound, the “kD2O^Tb” value [3, 12] was 580 s⁻¹, the nem^Tb (H2O) [4] was 40% and the “ET^Gd” value [5] was 23,800 cm^−1. For the same compound, the emission lifetime [6] was 0.7 ms and the nuclear localisation [7] was “tendency for nuclear localisation”.
In the case of `CC(NC(=O)CN1CCN(CC(=O)NC(C)c2ccccc2)CCN(Cc2ccc3c(=O)c4cc(C(C)(C)C)ccc4oc3n2)CCN(CC(=O)NC(C)c2ccccc2)CC1)c1ccccc1.[Tb+3]` (stereo not shown) [[TbL^4]^3+], the γmax [2] is reported as 335 nm, the ε [2] is reported as 6,900 M^−1 cm^−1 and the “kD2O^Tb” value [3, 11] is reported as 610 s⁻¹. For the same compound, the “kD2O^Tb” value [3, 12] was 350 s⁻¹, the nem^Tb (H2O) [4] was 37% and the “ET^Gd” value [5] was 24,800 cm^−1. For the same compound, the “Ksv^−1 (urate)” value [8] was 0.04 mM, the “Ksv^−1 ascorbate” value [9] was 0.37 mM and the “Ksv^−1 (I^−)” value [10] was 9.2 mM. The emission lifetime [6] was 0.5 ms and the nuclear localisation [7] was “tendency for nuclear localisation”.
With `CC(C)(C)c1ccc2oc3cccnc3c(=O)c2c1` [Compound 2, 7-Tert-Butyl-1-Azaxanthone] the ligand reduction potential [1] was −1.60 V.
In the case of “cyclohexyl tetraazatriphenylene [reference compound]”, the ligand reduction potential [1] is reported as −1.07 V.
